Reference: patent publication US20150313837A1, “POLYMERIC HYDROGEL COMPOSITIONS WHICH RELEASE ACTIVE AGENTS IN RESPONSE TO ELECTRICAL STIMULUS” (University of Witwatersrand, Johannesburg, priority 2010, published 2015)

Assay: Drug leakage from hydrogel in PBS in absence of electric current
Assay type: physicochemical
Conditions: comparison of drugs loaded in the hydrogel
Procedure: The indomethacin-loaded hydrogels were left in […] PBS for 12 hours, and a 1 mL sample was then taken in order to assess for any drug release prior to exposure to an electric current. […] Further tests for drug release of the indomethacin-loaded hydrogels in the presence of an electric current were performed.
The system was therefore left in 50 mL of PBS for 12 hours, and 1 mL sample was taken and assessed for any presence of drugs. […] The hydrogels were then then assessed for their drug release capacity. They were once again immersed in PBS and an electric current was passed through them. This time, 35 samples were extracted and assessed by UV/visible spectroscopy for the amount of drugs which were released.
The amount of drug released ranged from 0.081 mg to 0.160 mg. The hydrogel was then assessed one last time for any leakage of drugs. The hydrogel was immersed in 50 mL of PBS for 12 hours.
One possible explanation for this phenomenon is the larger molecular size of indomethacin as compared to diclofenac sodium and ibuprofen. This larger molecular size means that indomethacin is better entrapped inside the three dimensional network of the hydrogel system.

Row | Structure (SMILES) | leakage of loaded drug from hydrogel when no electric current is applied
1 | O=C(O)Cc1ccccc1Nc1c(Cl)cccc1Cl [Diclofenac sodium] | drug leakage may still have occurred on the surface
2 | CC(C)Cc1ccc(C(C)C(=O)O)cc1 (stereo not drawn) [ibuprofen] | drug leakage may still have occurred on the surface
3 | COc1ccc2c(c1)c(CC(=O)O)c(C)n2C(=O)c1ccc(Cl)cc1 [indomethacin] | no leakage occurred
